Test results from US9771316B2, “Phenoxyalkylamine compound” (OSAKA UNIVERSITY, priority 2013, dated 2017).
Counter-ions that a name gives are not always drawn.

Assays:
human LAT-1 [1] = biological target: T1, human LAT-1 (Homo sapiens (Human), UniProt Q01650); assay: Inhibition of [14C]L-leucine uptake into human LAT-1 stably expressing HEK293 cell line (uptake buffer, 1 min); type: cell-based; settings: HEK293 human LAT-1 stably expressing cells; Na+-free HBSS pH7.4; [14C]L-leucine or alanine 1 μM, uptake 1 min; read-out: LAT-1 inhibitory activity/IC50
From the text: (§1) 1) LAT-1 Inhibitory Activity and LAT-2 Inhibitory Activity Inhibitory Effect on Uptake of Amino Acid into Human LAT-1 Stably Expressing Cell Line and LAT-2 Stably Expressing Cell Line
(§2) Expression vector each expressing a gene was inserted using Lipofectamine 2000 (Invitrogen) to cultured cell line HEK293 cell derived from human fetus renal cell. The resistant strains were selected using G418, and among them, the strains showing human LAT-1- or LAT-2-specific uptake of amino acid were established as stably expressing cell lines, respectively.
(§3) The above-mentioned stably expressing cells were plated on a 24-well collagen plate at 1.2×10^5 cells/well, and, after 48 hr, the cells were washed (×3) with uptake buffer ([…] Hank's balanced salt solution (HBSS) pH7.4) kept at 37° C. Each test compound (0.1, 1, 3, 10, 30, 100, 300 and 1000 μM) was added thereto, and the mixture was kept at 37° C. for 3 min. [^14C]L-leucine or alanine (1 μM) was added thereto, and [^14C]L-leucine or alanine (1 μM) was uptaken for 1 min. The mixture was washed with ice-cold uptake buffer (×3). Then, the cells were dissolved in 0.1M NaOH aqueous solution (500 μL), and the protein concentration was measured using the 20 μL of the solution. The uptaken radioactivity was measured using the remaining solution. The measured results were corrected with the protein concentration. The results were evaluated as inhibitory capacity 50%, i.e., IC50, which corresponds to the concentration inhibiting 50% of the cellular uptake of amino acid.

human LAT-2 = human LAT-2 (Homo sapiens (Human), UniProt Q9UHI5); assay: Inhibition of [14C] amino acid uptake into human LAT-2 stably expressing HEK293 cell line (uptake buffer, 1 min); type: cell-based; settings: HEK293 human LAT-2 stably expressing cells; Na+-free HBSS pH7.4; [14C]L-leucine or alanine 1 μM, uptake 1 min; read-out: LAT-2 inhibitory activity/IC50
From the text: as §1, §2, §3

[2] = test system: subcutaneous tumor derived from human pancreatic cancer cell line MIAPaCa-2; assay: Enlargement inhibitory effect on subcutaneous tumor derived from MIAPaCa-2 in nude mice; type: in vivo, nude mice (BALB/cAJc1-nu); settings: 1 mg/kg orally once a day for 7 days; female nude mice; tumor volume after 15 to 21 days vs control group
Method: Experimental Example 2 Biological Activity Evaluation Test Enlargement Inhibitory Effect on Subcutaneous Tumor Derived from Human Pancreatic Cancer Cell Line MIAPaCa-2 in Nude Mice
Tumor tissue (0.1 g) derived from MIAPaCa-2 cell was subcutaneously transplanted into female nude mice (6-week old, BALB/cAJc1-nu), which the tumor tissue was formed in different nude mice in advance. 5% MC suspension was prepared from saline and each test compound (1 mg/kg), and it was orally-administered once a day for 7 days from 2 days after transplant. The time-dependent change of the tumor volume was measured by measuring (major axis×minor axis×minor axis)/2 of the tumor volume (weight) according to the method in Sawa, Jun Wu, Takaaki Akaike, and Hiroshi Maeda (2000) Cancer research 60, 666-671.
The tumor volume after 15 to 21 days administration of compound administration group was compared with those of control group, and the tumor growth inhibitory ratio was calculated. The anti-tumor action was evaluated as tumor growth inhibitory ratio.

MIAPaCa-2 cells = assay: Growth inhibitory effect on human pancreatic cancer cell line MIAPaCa-2 (Trypan-Blue method); type: cell-based; settings: MIA PaCa-2, 0.2% DMSO, counted every 24 hr for 5 days
Method: 2) Growth Inhibitory Effect on Human Pancreatic Cancer Cell Line MIAPaCa-2
MIAPaCa-2 cells were plated on a 12-well plate at 2000 cells/well, and cultured for 48 hr without addition of test compound. 48 hr after the beginning of the culture, each test compound (0.03, 0.1, 0.3, 1, 3, 6, 10, 30, 100 μM) was added thereto in the presence of 0.2% DMSO. The cells were counted every 24 hr for 5 days, and the inhibitory effect on the MIAPaCa-2 cell growth was observed by Trypan-Blue method. The results were evaluated as inhibitory capacity 50%, i.e., IC50, which corresponds to the concentration inhibiting 50% of the cell growth inhibitory activity.

human LAT-1 [3] = biological target: T1, human LAT-1; assay: Inhibition of [14C]L-leucine uptake into human LAT-1 stably expressing cells in culture solution (MEM medium, 120 min); type: cell-based; settings: MEM medium containing non-essential amino acid, [14C]L-leucine uptake 120 min, read-out: LAT-1 inhibitory activity/IC50
Method: The above-mentioned human LAT-1 stably expressing cells were plated on a 24-well collagen plate at 1.2×10^5 cells/well, and, after 48 hr, the cells were washed (×3) with new culture solution (MEM medium (containing non-essential amino acid)) kept at 37° C. Each test compound (0.1, 1, 3, 10 and 30 μM) was added thereto, and the mixture was kept at 37° C. for 3 min. [^14C]L-leucine was added thereto, and [^14C]L-leucine was uptaken in the culture solution for 120 min. The mixture was washed (×3) with ice-cold buffer (Na^2+-free Hank's balanced salt solution (HBSS) pH7.4). Then, the cells were dissolved in 0.1M NaOH aqueous solution (500 μL), and the protein concentration was measured using the 20 μL of the solution. The uptaken radioactivity was measured using the remaining solution. The measured results were corrected with the protein concentration. The results were evaluated as inhibitory capacity 50%, i.e., IC50, which corresponds to the concentration inhibiting 50% of the cellular uptake of amino acid.

human LAT-2, sequence (Q9UHI5 whole entry): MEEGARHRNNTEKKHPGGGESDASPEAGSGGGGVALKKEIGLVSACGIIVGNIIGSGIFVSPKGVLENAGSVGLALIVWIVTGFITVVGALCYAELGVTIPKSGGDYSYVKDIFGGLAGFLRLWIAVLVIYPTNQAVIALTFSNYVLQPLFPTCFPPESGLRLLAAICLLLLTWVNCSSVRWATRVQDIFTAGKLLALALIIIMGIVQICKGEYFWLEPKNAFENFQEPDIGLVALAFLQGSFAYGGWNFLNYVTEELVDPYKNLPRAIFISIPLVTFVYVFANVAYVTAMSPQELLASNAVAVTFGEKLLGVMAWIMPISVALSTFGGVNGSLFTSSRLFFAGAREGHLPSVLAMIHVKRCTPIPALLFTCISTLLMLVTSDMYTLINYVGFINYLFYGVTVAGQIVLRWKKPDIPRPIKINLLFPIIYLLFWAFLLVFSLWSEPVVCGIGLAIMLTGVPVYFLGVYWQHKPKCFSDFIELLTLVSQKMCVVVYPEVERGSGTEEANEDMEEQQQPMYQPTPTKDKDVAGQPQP
human LAT-2, sequence (P08195 102-630 partner): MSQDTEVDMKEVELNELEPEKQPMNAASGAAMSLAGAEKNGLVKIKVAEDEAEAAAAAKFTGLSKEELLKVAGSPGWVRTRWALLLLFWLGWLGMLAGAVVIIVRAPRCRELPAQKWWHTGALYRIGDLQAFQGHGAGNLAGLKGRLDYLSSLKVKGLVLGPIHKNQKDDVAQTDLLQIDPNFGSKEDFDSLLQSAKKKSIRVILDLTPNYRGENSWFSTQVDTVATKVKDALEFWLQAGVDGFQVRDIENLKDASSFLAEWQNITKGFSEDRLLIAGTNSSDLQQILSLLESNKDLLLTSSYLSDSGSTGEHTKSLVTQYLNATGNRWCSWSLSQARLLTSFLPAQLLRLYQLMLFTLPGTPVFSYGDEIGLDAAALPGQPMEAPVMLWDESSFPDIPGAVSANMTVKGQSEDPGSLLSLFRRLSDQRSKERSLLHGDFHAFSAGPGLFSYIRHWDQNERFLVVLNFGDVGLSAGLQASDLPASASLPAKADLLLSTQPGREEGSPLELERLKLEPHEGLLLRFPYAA
T1 sequence (Q01650 whole entry): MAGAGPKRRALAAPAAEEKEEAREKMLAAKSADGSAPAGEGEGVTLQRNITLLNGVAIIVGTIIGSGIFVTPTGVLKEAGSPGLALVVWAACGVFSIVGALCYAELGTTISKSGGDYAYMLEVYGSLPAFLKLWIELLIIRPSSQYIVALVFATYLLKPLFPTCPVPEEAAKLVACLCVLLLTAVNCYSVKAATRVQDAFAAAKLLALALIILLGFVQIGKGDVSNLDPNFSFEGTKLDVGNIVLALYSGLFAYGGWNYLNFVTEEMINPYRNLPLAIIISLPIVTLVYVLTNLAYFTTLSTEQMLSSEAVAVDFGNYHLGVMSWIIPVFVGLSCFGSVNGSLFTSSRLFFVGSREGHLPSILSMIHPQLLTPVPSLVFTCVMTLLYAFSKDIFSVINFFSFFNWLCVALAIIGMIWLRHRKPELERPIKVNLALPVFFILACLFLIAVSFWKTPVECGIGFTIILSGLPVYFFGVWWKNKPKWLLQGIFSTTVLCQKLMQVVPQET
T1 sequence (P08195 102-630 partner): as the sequence (P08195 102-630 partner) above

IC50 (human LAT-1 [1]) [µM] | IC50 (human LAT-2) [µM] | IC50 (MIAPaCa-2 cells) [µM] | IC50 (human LAT-1 [3]) [µM] | SMILES | tumor growth inhibitory ratio [2] [%]
57.5 | 146 | – | – | NCCCCC(Oc1ccc(C(F)(F)F)cc1)c1ccccc1 (stereo not drawn) [Example 1, 5-phenyl-5-[4-(trifluoromethyl)phenoxy]pentan-1-amine] | –
76 | 218 | – | – | NCCCCC(Oc1ccc(C(F)(F)F)c(F)c1)c1ccccc1 (stereo not drawn) [Example 29] | –
62.8 | 194 | 0.17 | – | NCCCC[C@@H](Oc1ccc(C(F)(F)F)cc1)c1ccccc1 [Example 66, (R)-5-phenyl-5-[4-(trifluoromethyl)phenoxy]pentan-1-amine fumarate] | –
56.6 | 357 | – | – | NCCCCC(Oc1ccc(C(F)(F)F)cc1)c1cccs1 (stereo not drawn) [Example 48, 5-(thiophen-2-yl)-5-[4-(trifluoromethyl)phenoxy]pentan-1-amine] | –
39.4 | 169 | – | – | NCCCCC(Oc1ccc(OC(F)(F)F)cc1)c1ccccc1 (stereo not drawn) [Example 44] | –
89.1 | 128 | – | – | NCCCCCC(Oc1ccc(C(F)(F)F)cc1)c1ccccc1 (stereo not drawn) [Example 6, 6-phenyl-6-[4-(trifluoromethyl)phenoxy]hexan-1-amine] | –
177 | 300 | – | – | NCCCCC(Oc1ccc(C(F)(F)F)c(F)c1)c1cccs1 (stereo not drawn) [Example 54] | –
63 | 100 | – | – | NCCCCC(Oc1ccc(C(F)(F)F)cc1)c1cccc(F)c1 (stereo not drawn) [Example 12] | –
96.2 | 207 | 4.16 | – | NCCCC[C@H](Oc1ccc(C(F)(F)F)cc1)c1ccccc1 [Example 67, (S)-5-phenyl-5-[4-(trifluoromethyl)phenoxy]pentan-1-amine fumarate] | –

Continued, compound first:

SMILES | IC50 (human LAT-1 [1]) [µM] | IC50 (human LAT-2) [µM] | IC50 (MIAPaCa-2 cells) [µM] | IC50 (human LAT-1 [3]) [µM] | tumor growth inhibitory ratio [2] [%]
NCCCCC(Oc1ccc(OC(F)(F)F)c(F)c1)c1cccs1 (stereo not drawn) [Example 53] | 146 | 258 | – | – | –
CCC(C)c1ccc(OC(CCCCN)c2cccs2)cc1 (stereo not drawn) [Example 51] | 261 | 261 | – | – | –
NCCCCC(Oc1ccc(C(F)(F)F)c(F)c1)c1ccccc1.O=C(O)/C=C/C(=O)O (stereo not drawn) [Example 72] | – | – | – | – | 84.4
NCCCCC(Oc1ccc(OC(F)(F)F)cc1)c1cccs1 (stereo not drawn) [Example 50] | 123 | 313 | – | – | –
NCCCC[C@H](Oc1ccc(C(F)(F)F)c(F)c1)c1ccccc1.O=C(O)/C=C/C(=O)O [Example 69, (S)-5-[3-fluoro-4-(trifluoromethyl)phenoxy]-5-phenylpentan-1-amine fumarate] | 69 | 53 | 0.83 | – | 85.5
NCCCC[C@@H](Oc1ccc(OC(F)(F)F)cc1)c1ccccc1.O=C(O)/C=C/C(=O)O [Example 70, (R)-5-phenyl-5-[4-(trifluoromethoxy)phenoxy]pentan-1-amine fumarate] | 36.6 | 131 | 0.11 | 10.4 | 90.2
NCCCCC(Oc1ccc(C(F)(F)F)cc1)c1ccccc1.O=C(O)/C=C/C(=O)O (stereo not drawn) [Example 2, 5-phenyl-5-[4-(trifluoromethyl)phenoxy]pentan-1-amine fumarate] | – | – | – | – | 80.5
NCCCC[C@@H](Oc1ccc(C(F)(F)F)c(F)c1)c1ccccc1.O=C(O)/C=C/C(=O)O [Example 68, (R)-5-[3-fluoro-4-(trifluoromethyl)phenoxy]-5-phenylpentan-1-amine fumarate] | 36.4 | 156 | 0.43 | – | 84.4
NCCCCC(Oc1ccc(OC(F)(F)F)cc1)c1ccccc1.O=C(O)/C=C/C(=O)O (stereo not drawn) [Example 73] | – | – | – | – | 83.6
NCCCC[C@H](Oc1ccc(OC(F)(F)F)cc1)c1ccccc1.O=C(O)/C=C/C(=O)O [Example 71, (S)-5-phenyl-5-[4-(trifluoromethoxy)phenoxy]pentan-1-amine fumarate] | 244 | 131 | 3.36 | – | 85.9
CCC(C)c1ccc(OC(CCCCN)c2ccccc2)cc1 (stereo not drawn) [Example 26] | 57 | 253 | – | – | –
